In ChEMBL document CHEMBL1201862, “PubChem BioAssay data set” (2004):
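How tested: cells in 96-well plates exposed to compound for 48 hours at five concentrations. Here, GI50 denotes the concentration required for 50% inhibition of growth.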 The source made the active and inactive calls. Rule as the data show it: active = GI50 up to about 1.1 µM and inactive = higher.

Experiments:
Test in all cases: growth of human tumour cells (NCI), 48 h
PC-3 = tested on: PC-3
SN12C = tested on: SN12C
786-0 = tested on: 786-0
MDA-MB-435 = tested on: MDA-MB-435
MDA-MB-231 = tested on: MDA-MB-231
BT-549 = tested on: BT-549
MCF7 = tested on: MCF7
SK-MEL-5 = tested on: SK-MEL-5
T47D = tested on: T47D
KM12 = tested on: KM12
OVCAR-3 = tested on: OVCAR-3
CCRF-CEM = tested on: CCRF-CEM
TK-10 = tested on: TK-10
HCT-116 = tested on: HCT-116
IGROV-1 = tested on: IGROV-1
RXF 393 = tested on: RXF 393
K562 = tested on: K562
A498 = tested on: A498
HOP-92 = tested on: HOP-92

O=C(Nc1ccc(Cl)cc1)NS(=O)(=O)c1coc2cc(F)ccc2c1=O
GI50 (PC-3): > 100 µM (inactive) | GI50 (SN12C): > 100 µM (inactive) | GI50 (786-0): > 100 µM (inactive) | GI50 (MDA-MB-435): 30.6 µM (inactive) | GI50 (MDA-MB-231): > 100 µM (inactive) | GI50 (BT-549): > 100 µM (inactive) | GI50 (MCF7): > 100 µM (inactive) | GI50 (SK-MEL-5): > 100 µM (inactive) | GI50 (T47D): > 100 µM (inactive) | GI50 (KM12): 92 µM (inactive) | GI50 (OVCAR-3): > 100 µM (inactive) | GI50 (CCRF-CEM): 86.3 µM (inactive) | GI50 (TK-10): > 100 µM (inactive) | GI50 (HCT-116): > 10 µM (inactive) | GI50 (IGROV-1): > 100 µM (inactive) | GI50 (RXF 393): > 100 µM (inactive) | GI50 (K562): 19.7 µM (inactive)

O=C(Nc1ccc2[nH]c(C(=O)N3CC(CCl)c4c3cc([N+](=O)[O-])c3ccccc43)cc2c1)Nc1ccc2[nH]c(C(=O)N3CC(CCl)c4c3cc([N+](=O)[O-])c3ccccc43)cc2c1 (stereo not drawn)
GI50 (A498): > 100 µM (inactive) | GI50 (PC-3): > 100 µM (inactive) | GI50 (HOP-92): > 100 µM (inactive) | GI50 (SN12C): > 100 µM (inactive) | GI50 (786-0): > 100 µM (inactive) | GI50 (MDA-MB-435): > 100 µM (inactive) | GI50 (MDA-MB-231): 27.5 µM (inactive) | GI50 (BT-549): > 100 µM (inactive) | GI50 (MCF7): > 100 µM (inactive) | GI50 (SK-MEL-5): > 100 µM (inactive) | GI50 (T47D): > 100 µM (inactive) | GI50 (KM12): > 100 µM (inactive) | GI50 (OVCAR-3): > 100 µM (inactive) | GI50 (CCRF-CEM): 22.4 µM (inactive) | GI50 (TK-10): > 100 µM (inactive) | GI50 (HCT-116): > 100 µM (inactive)

Clc1sc(Cl)c2c1[C@H](Br)C[C@@H]2Cl
GI50 (PC-3): 40.3 µM (inactive) | GI50 (SN12C): 29.5 µM (inactive) | GI50 (786-0): 32.9 µM (inactive) | GI50 (MDA-MB-435): 18.4 µM (inactive) | GI50 (MDA-MB-231): 21.4 µM (inactive) | GI50 (BT-549): 18.2 µM (inactive) | GI50 (MCF7): 12.5 µM (inactive) | GI50 (SK-MEL-5): 46.9 µM (inactive) | GI50 (T47D): 36.4 µM (inactive) | GI50 (KM12): 39.8 µM (inactive) | GI50 (OVCAR-3): 23.8 µM (inactive) | GI50 (CCRF-CEM): 17.5 µM (inactive) | GI50 (TK-10): 33.7 µM (inactive) | GI50 (HCT-116): 27.9 µM (inactive) | GI50 (IGROV-1): 13.2 µM (inactive) | GI50 (RXF 393): 26 µM (inactive) | GI50 (K562): 38.5 µM (inactive)

Oc1ccc(-c2nc(-c3cccnc3)c(-c3ccc(F)cc3)[nH]2)cc1
GI50 (PC-3): 16.7 µM (inactive) | GI50 (SN12C): 23.9 µM (inactive) | GI50 (786-0): 22.9 µM (inactive) | GI50 (MDA-MB-435): 16.2 µM (inactive) | GI50 (MDA-MB-231): 18.9 µM (inactive) | GI50 (BT-549): 16.6 µM (inactive) | GI50 (MCF7): 16 µM (inactive) | GI50 (SK-MEL-5): 16.3 µM (inactive) | GI50 (T47D): 17.4 µM (inactive) | GI50 (KM12): 18.2 µM (inactive) | GI50 (OVCAR-3): 16.7 µM (inactive) | GI50 (CCRF-CEM): 10.7 µM (inactive) | GI50 (TK-10): 18.6 µM (inactive) | GI50 (HCT-116): 17.4 µM (inactive) | GI50 (IGROV-1): 17.5 µM (inactive) | GI50 (RXF 393): 17.6 µM (inactive) | GI50 (K562): 16 µM (inactive)

CC1=CC(C/C(C)=C/COc2ccc3ccc(=O)oc3c2)OC1=O (stereo not drawn)
GI50 (PC-3): 68.9 µM (inactive) | GI50 (HOP-92): > 100 µM (inactive) | GI50 (SN12C): > 100 µM (inactive) | GI50 (786-0): > 100 µM (inactive) | GI50 (MDA-MB-435): 54.5 µM (inactive) | GI50 (MDA-MB-231): 5.66 µM (inactive) | GI50 (BT-549): 76.2 µM (inactive) | GI50 (MCF7): > 100 µM (inactive) | GI50 (SK-MEL-5): 53.6 µM (inactive) | GI50 (T47D): > 100 µM (inactive) | GI50 (KM12): > 100 µM (inactive) | GI50 (OVCAR-3): > 100 µM (inactive) | GI50 (CCRF-CEM): > 100 µM (inactive) | GI50 (TK-10): > 100 µM (inactive) | GI50 (HCT-116): 92.7 µM (inactive) | GI50 (IGROV-1): > 100 µM (inactive) | GI50 (RXF 393): > 100 µM (inactive) | GI50 (K562): 59.8 µM (inactive)

COC(=O)C(Cc1ccccc1)NC(=O)CCCNC(=O)OCc1ccccc1 (stereo not drawn)
GI50 (PC-3): > 100 µM (inactive) | GI50 (HOP-92): 99.1 µM (inactive) | GI50 (SN12C): > 100 µM (inactive) | GI50 (786-0): > 100 µM (inactive) | GI50 (MDA-MB-435): 86.1 µM (inactive) | GI50 (MDA-MB-231): > 100 µM (inactive) | GI50 (BT-549): > 100 µM (inactive) | GI50 (MCF7): > 100 µM (inactive) | GI50 (SK-MEL-5): 22.4 µM (inactive) | GI50 (T47D): 71.3 µM (inactive) | GI50 (KM12): > 100 µM (inactive) | GI50 (OVCAR-3): > 100 µM (inactive) | GI50 (CCRF-CEM): 41 µM (inactive) | GI50 (TK-10): > 100 µM (inactive) | GI50 (HCT-116): > 100 µM (inactive) | GI50 (IGROV-1): > 100 µM (inactive) | GI50 (RXF 393): < 0.01 µM (active) | GI50 (K562): > 100 µM (inactive)

c1ccc(-c2cc(-c3cc(-c4ccccc4)n(-c4ccccc4)n3)nn2-c2ccccc2)cc1
GI50 (A498): > 100 µM (inactive) | GI50 (PC-3): > 100 µM (inactive) | GI50 (SN12C): > 100 µM (inactive) | GI50 (786-0): 78.5 µM (inactive) | GI50 (MDA-MB-435): > 100 µM (inactive) | GI50 (MDA-MB-231): > 100 µM (inactive) | GI50 (BT-549): > 100 µM (inactive) | GI50 (MCF7): > 100 µM (inactive) | GI50 (SK-MEL-5): > 100 µM (inactive) | GI50 (T47D): > 100 µM (inactive) | GI50 (KM12): > 100 µM (inactive) | GI50 (OVCAR-3): > 100 µM (inactive) | GI50 (CCRF-CEM): > 100 µM (inactive) | GI50 (TK-10): > 100 µM (inactive) | GI50 (HCT-116): > 100 µM (inactive) | GI50 (IGROV-1): > 100 µM (inactive) | GI50 (RXF 393): > 100 µM (inactive) | GI50 (K562): > 100 µM (inactive)

CC1=C(C)C(=O)C2=C(OCCO2)C1=O
GI50 (A498): 19.5 µM (inactive) | GI50 (PC-3): 18.2 µM (inactive) | GI50 (HOP-92): 2.75 µM (inactive) | GI50 (SN12C): 20 µM (inactive) | GI50 (786-0): 22.5 µM (inactive) | GI50 (MDA-MB-435): 2.82 µM (inactive) | GI50 (MDA-MB-231): 4.47 µM (inactive) | GI50 (BT-549): 22.8 µM (inactive) | GI50 (MCF7): 24.5 µM (inactive) | GI50 (SK-MEL-5): 16 µM (inactive) | GI50 (T47D): 2.39 µM (inactive) | GI50 (KM12): 17.3 µM (inactive) | GI50 (OVCAR-3): 10.3 µM (inactive) | GI50 (CCRF-CEM): 3.73 µM (inactive) | GI50 (TK-10): 16.9 µM (inactive) | GI50 (HCT-116): 3.73 µM (inactive) | GI50 (IGROV-1): 2.11 µM (inactive)
